Test results: US20260028354A1, “TETRAHYDRONAPHTHALENE DERIVATIVES AS ESTROGEN RECEPTOR DEGRADERS” (REGENT OF THE UNIVERSITY OF MICHIGAN, priority 2022, published 2026)
Where two headings read alike, the source gives them in different places.

Tests used:
[1] = target: CRBN/DDB1 (Homo sapiens (Human), UniProt Q96SW2); type: binding; conditions: His tagged CRBN+DDB1, Cy5-labeled Thalidomide probe, one hour; read-out: CRBN HTRF IC50
Protocol: The binding potency was determined using HTRF assay technology (Perkin Elmer). Compounds were serially diluted in DMSO and […] volume was transferred to white 384-well plate.

[2] = target: ERα_LBD (GST) (Homo sapiens (Human), UniProt P03372); test: IC50 measurements for binding to ERα_LBD (GST), LanthaScreen TR-FRET competitive binding; conditions: ERα_LBD (GST) 4 nM, Fluormone ES2 Green tracer, 60 min; read-out: ERα HTRF IC50
Protocol: In vitro Assay: IC50 Measurements for binding to ERα_LBD (GST) • Final assay conditions: • 1. ERα_LBD (GST) protein: 4 nM • 2. Tb Anti-GST: 2 nM • 3. Fluormone ES2 Green tracer: 3 nM • 4. Incubation time: 60 min • 5. DMSO: 1% • 6. Assay buffer: Adding 1M DTT to Nuclear receptor Buffer K for final 5 mM DTT. • 7. ZPE: 1% DMSO • 8. HPE: 1 μM ARV_471 (positive control) • 9. LanthaScreen® TR-FRET ERα Competitive Binding Assay (ThermoFisher, #A^15887) • 100× Compound preparation
1) Cherry pick 2 μL 10 mM compound stock to column 1 of a 384 intermediate plate. • 2) Add 18 μL DMSO to column 1 to dilute compound to 1 mM. • 3) Transfer 10 μL 1 mM compound to column 1 of a LDV plate. • 2) Add 6 μl DMSO to column 2-10 of the LDV plate. • 3) Compounds undergo 3-fold serial dilution (3 μL+6 μL) in DMSO. • 4) Transfer 120 nL compound solution to assay plate. ZPE: 120 nL 100% DMSO • Procedure:
Complete nuclear receptor buffer K was prepared by adding 1 M DTT to nuclear receptor buffer K for a final concentration of 5 mM DTT. Complete nuclear receptor buffer K must be prepared fresh daily, 2X protein solution was prepared using complete nuclear receptor buffer K containing 8 nM ERα_LBD (GST) and 4 nM Tb Anti-GST. Then, 2X Fluormone ES2 Green tracer (6 nM) was prepared using complete nuclear receptor buffer K. Add 6 μL 2X Fluormone ES2 green tracer into a compound plate (PerkinElmer 6008289) by dragonfly with one-tips-addition. Subsequently, 6 μL 2× protein solution was added into the plate. The 384-well plate was mixed on a plate shaker and incubated at room temperature protected from light for 60 min. The plate was scaled with a cover to minimize evaporation. The plate was read at wavelengths of 520 nm and 495 nm. The TR-FRET ratio was calculated by dividing the emission signal at 520 nm by the emission signal at 495 nm. A binding curve was generated by plotting the emission ratio vs, the log [ligand]. To determine the IC50 value, fit the data using XL-fit for a sigmoidal dose-response.

[3] = target: ER in MCF-7 cells (Homo sapiens (Human), UniProt P03372); test: In-cell Western (ICW) ER degradation assay in MCF-7 cells; type: cell-based; conditions: for DC50: MCF-7, ER degradation, read-out: MCF7 DC50
[4] = target: ER in T47D cells (Homo sapiens (Human), UniProt P03372); test: In-cell Western (ICW) ER degradation assay in T47D cells; type: cell-based; conditions: for DC50: ER degradation
[5] = MCF7, MCF-7, maximal ER degradation, 16 hrs treatment, read-out: MCF7 Dmax
[6] = maximal ER degradation, 16 hrs treatment, read-out: T47D Dmax
[7] = MCF7, read-out: MCF7 Dmax, MCF-7, maximal ER degradation, 16 hrs treatment
[8] = read-out: T47D Dmax, T47D, maximal ER degradation, 16 hrs treatment

Sequence of ERα_LBD (GST) (P03372 311-547): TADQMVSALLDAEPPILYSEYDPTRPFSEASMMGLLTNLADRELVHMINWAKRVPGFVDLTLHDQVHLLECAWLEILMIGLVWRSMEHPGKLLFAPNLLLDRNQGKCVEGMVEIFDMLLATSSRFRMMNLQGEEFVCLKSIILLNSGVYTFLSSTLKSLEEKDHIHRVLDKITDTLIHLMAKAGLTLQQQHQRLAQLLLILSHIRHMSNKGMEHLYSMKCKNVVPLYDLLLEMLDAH
Sequence of CRBN/DDB1 (Q96SW2 whole entry, species assumed): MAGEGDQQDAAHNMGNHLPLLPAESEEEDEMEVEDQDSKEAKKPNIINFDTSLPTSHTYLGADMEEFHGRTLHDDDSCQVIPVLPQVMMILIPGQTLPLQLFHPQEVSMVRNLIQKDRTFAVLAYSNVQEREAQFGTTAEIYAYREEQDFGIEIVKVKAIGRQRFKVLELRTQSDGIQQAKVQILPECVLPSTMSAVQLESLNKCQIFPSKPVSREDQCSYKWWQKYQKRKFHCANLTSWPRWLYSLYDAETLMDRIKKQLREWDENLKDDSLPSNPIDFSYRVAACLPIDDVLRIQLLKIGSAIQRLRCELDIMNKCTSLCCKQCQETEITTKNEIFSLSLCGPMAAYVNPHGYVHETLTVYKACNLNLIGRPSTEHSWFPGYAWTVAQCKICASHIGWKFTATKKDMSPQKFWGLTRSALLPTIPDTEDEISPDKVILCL
Sequence of CRBN/DDB1 (Q16531 whole entry partner, species assumed): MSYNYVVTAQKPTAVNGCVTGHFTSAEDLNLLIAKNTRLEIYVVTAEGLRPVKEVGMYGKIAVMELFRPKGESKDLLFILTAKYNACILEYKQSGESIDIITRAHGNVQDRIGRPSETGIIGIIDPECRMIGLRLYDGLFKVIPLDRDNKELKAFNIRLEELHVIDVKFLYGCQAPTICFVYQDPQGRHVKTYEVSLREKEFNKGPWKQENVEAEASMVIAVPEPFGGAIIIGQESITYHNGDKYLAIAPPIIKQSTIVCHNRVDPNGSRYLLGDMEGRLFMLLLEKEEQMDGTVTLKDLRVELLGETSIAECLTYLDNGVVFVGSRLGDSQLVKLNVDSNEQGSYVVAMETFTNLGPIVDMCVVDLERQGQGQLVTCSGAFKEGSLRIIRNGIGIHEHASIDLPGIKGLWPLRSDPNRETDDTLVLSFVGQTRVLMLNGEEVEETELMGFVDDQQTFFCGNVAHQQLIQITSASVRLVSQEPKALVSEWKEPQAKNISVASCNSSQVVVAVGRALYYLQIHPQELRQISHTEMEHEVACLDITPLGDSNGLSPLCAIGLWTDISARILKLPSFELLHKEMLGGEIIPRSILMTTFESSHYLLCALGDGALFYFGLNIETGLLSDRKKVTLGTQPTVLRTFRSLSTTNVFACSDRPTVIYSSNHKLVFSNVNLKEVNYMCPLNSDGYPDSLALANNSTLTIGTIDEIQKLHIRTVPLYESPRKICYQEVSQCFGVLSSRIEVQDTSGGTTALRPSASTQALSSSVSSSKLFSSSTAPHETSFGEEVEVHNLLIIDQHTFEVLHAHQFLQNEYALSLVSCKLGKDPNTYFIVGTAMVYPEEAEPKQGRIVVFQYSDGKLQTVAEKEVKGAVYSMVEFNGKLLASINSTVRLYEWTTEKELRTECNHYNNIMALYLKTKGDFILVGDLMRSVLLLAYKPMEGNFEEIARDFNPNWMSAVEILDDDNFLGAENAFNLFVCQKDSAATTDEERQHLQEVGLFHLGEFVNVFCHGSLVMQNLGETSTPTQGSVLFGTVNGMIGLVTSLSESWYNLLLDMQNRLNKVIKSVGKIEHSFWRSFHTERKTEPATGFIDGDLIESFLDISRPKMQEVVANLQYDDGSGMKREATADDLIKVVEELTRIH
Sequence of ER in MCF-7 cells (P03372 whole entry): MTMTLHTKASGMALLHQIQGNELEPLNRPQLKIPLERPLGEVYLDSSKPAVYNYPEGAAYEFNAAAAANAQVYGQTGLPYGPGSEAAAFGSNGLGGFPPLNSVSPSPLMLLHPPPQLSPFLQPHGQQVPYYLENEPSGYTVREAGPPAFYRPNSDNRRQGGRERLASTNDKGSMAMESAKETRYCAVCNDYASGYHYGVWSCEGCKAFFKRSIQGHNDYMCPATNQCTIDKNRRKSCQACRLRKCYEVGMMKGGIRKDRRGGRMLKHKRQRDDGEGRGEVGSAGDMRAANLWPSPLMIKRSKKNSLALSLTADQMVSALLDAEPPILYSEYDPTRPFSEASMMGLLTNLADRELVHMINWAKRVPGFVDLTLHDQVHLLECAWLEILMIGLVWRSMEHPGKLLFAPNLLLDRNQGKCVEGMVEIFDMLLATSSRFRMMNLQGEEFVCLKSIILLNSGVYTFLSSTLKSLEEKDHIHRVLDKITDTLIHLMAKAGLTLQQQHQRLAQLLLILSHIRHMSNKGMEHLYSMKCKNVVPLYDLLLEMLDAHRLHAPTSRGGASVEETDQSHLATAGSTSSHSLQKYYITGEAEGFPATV
Sequence of ER in T47D cells (P03372 whole entry): as above

Row | SMILES | IC50 [1] | IC50 [2] | Dmax [3, 5] | DC50 ([3]; 16 hrs treatment) | DC50 ([4]; 16 hrs treatment) | Dmax [4, 6] | Dmax [3, 7] | Dmax [4, 8]
1 | O=C1CC[C@H](NC(=O)c2ccc3c(n2)OC[C@H]2CN(CC4CCN(c5ccc([C@@H]6c7ccc(O)cc7CC[C@@H]6c6ccccc6)cc5)CC4)CCN32)C(=O)N1 (single isomer, unassigned) [Compound A6] | 500 to 5000 nM | < 10 nM | 50 to 75% | < 1 nM | < 1 nM | 50 to 75% | – | –
2 | COc1cc(N2CCC3(CC2)CC(CN2CCN4c5ccc6c(c5OC[C@H]4C2)CN([C@H]2CCC(=O)NC2=O)C6=O)C3)ccc1[C@H]1c2ccc(O)cc2CC[C@H]1c1ccccc1 (single isomer, unassigned) [Compound A9] | < 50 nM | 10 to 100 nM | 50 to 75% | 1 to 10 nM | 1 to 10 nM | 50 to 75% | – | –
3 | COc1cc(N2CCC3(CC2)CC(CN2CCN4c5cc6c(cc5OC[C@@H]4C2)C(=O)N([C@H]2CCC(=O)NC2=O)C6)C3)ccc1[C@H]1c2ccc(O)cc2CC[C@H]1c1ccccc1 (single isomer, unassigned) [Compound A11] | 50 to 500 nM | 10 to 100 nM | 50 to 75% | 10 to 100 nM | 1 to 10 nM | 50 to 75% | – | –
4 | O=C1CC[C@H](N2Cc3cc4c(cc3C2=O)OC[C@H]2CN(C[C@@H]3COC5(CCN(c6ccc([C@@H]7c8ccc(O)cc8CC[C@@H]7c7ccccc7)cc6)CC5)C3)CCN42)C(=O)N1 (single isomer, unassigned) [Compound A18] | 500 to 5000 nM | > 100 nM | 50 to 75% | < 1 nM | < 1 nM | 50 to 75% | – | –
5 | O=C1CC[C@H](N2Cc3c(ccc4c3OC[C@H]3CN(C[C@@H]5COC6(C5)CN(c5ccc([C@@H]7c8ccc(O)cc8CC[C@@H]7c7ccccc7)cc5)C6)CCN43)C2=O)C(=O)N1 (single isomer, unassigned) [Compound A69] | 50 to 500 nM | < 10 nM | 50 to 75% | < 1 nM | < 1 nM | > 75% | – | –
6 | O=C1CC[C@H](N2Cc3c(ccc4c3OC[C@H]3CN(CC5CC6(CCN(c7ccc([C@@H]8c9ccc(O)cc9CC[C@@H]8c8ccccc8)cn7)CC6)C5)CCN43)C2=O)C(=O)N1 (single isomer, unassigned) [Compound A112] | 50 to 500 nM | < 10 nM | > 75% | < 1 nM | – | – | – | –
7 | O=C1CCC(NC(=O)c2ccc3c(n2)OC[C@H]2CN(CC4CCN(c5ccc([C@@H]6c7ccc(O)cc7CC[C@@H]6c6ccccc6)cc5)CC4)CCN32)C(=O)N1 (stereo partly drawn) [Compound A2, (4aR)-N-(2,6-dioxopiperidin-3-yl)-3-((1-(4-((1R,2S)-6-hydroxy-2-phenyl-1,2,3,4-tetrahydronaphthalen-1-yl)-phenyl)piperidin-4-yl)meth-yl)-1,2,3,4,4a,5-hexahydro-pyrazino[1,2-d]pyrido[2,3-b] [1,4]oxazine-8-carboxamide] | 500 to 5000 nM | < 10 nM | > 75% | < 1 nM | < 1 nM | > 75% | – | –
8 | COc1cc(N2CCC3(CC2)CC(CN2CCC4(CC2)COc2c4ccc4c2CN([C@H]2CCC(=O)NC2=O)C4=O)CO3)ccc1[C@H]1c2ccc(O)cc2CC[C@H]1c1ccccc1 (stereo partly drawn) [Compound A54, (3S)-3-(1′-((8-(4-((1R,2R)-6-hydroxy-2-phenyl-1,2,3,4-tetrahydronaphthalen-1-yl)-3-methoxyphenyl)-1-oxa-8-azaspiro[4.5]decan-3-yl)methyl)-6-oxo-6,8-dihydro-2H,7H-spiro[furo[2,3-e]isoindole-3,4′-piperidin]-7-yl)piperidine-2,6-dione] | < 50 nM | < 10 nM | – | < 1 nM | < 1 nM | – | 50 to 75% | > 75%
9 | COC1(CN2CCN3c4ccc5c(c4OC[C@H]3C2)CN([C@H]2CCC(=O)NC2=O)C5=O)CCN(c2ccc([C@@H]3c4ccc(O)cc4CC[C@@H]3c3ccccc3)cc2)CC1 [Compound A82, (S)-3-((R)-7-((1-(4-((1R,2S)-6-hydroxy-2-phenyl-1,2,3,4-tetrahydronaphthalen-1-yl)-phenyl)-4-methoxypiperidin-4-yl)methyl)-1-oxo-1,3,5,5a,6,7,8,9-octahydro-2H-pyrazino [1′,2′:4,5][1,4]oxazino[2,3-c]isoindol-2-yl)piperidine-2,6-dione] | 50 to 500 nM | < 10 nM | > 75% | < 1 nM | – | – | – | –
10 | COc1cc(N2CCC3(CC2)CC(CN2CCN4c5ccc6c(c5OC[C@H]4C2)CN([C@H]2CCC(=O)NC2=O)C6=O)C3)c(F)cc1[C@@H]1c2ccc(O)cc2CC[C@@H]1c1ccccc1 [Compound A99, (S)-3-((R)-7-((7-(2-fluoro-4-((1S,2S)-6-hydroxy-2-phenyl-1,2,3,4-tetrahydronaphthalen-1-yl)-5-methoxyphenyl)-7-azaspiro[3.5]nonan-2-yl)methyl)-1-oxo-1,3,5,5a,6,7,8,9-octahydro-2H-pyrazino[1′,2′:4,5][1,4]oxazino[2,3-e]isoindol-2-yl)piperidine-2,6-dione] | – | < 10 nM | > 75% | < 1 nM | < 1 nM | > 75% | – | –
11 | COc1cc(N2CCC3(CC2)CC(CN2CCC4(CC2)COc2cc5c(cc24)CN([C@H]2CCC(=O)NC2=O)C5=O)C3)c(F)cc1[C@@H]1c2ccc(O)cc2CC[C@@H]1c1ccccc1 [Compound A129, (S)-3-(1′-((7-(2-fluoro-4-((1S,2S)-6-hydroxy-2-phenyl-1,2,3,4-tetrahydronaphthalen-1-yl)-5-methoxyphenyl)-7-azaspiro[3.5]nonan-2-yl)methyl)-7-oxo-5,7-dihydro-2H,6H-spiro[furo[2,3-f]isoindole-3,4′-piperidin]-6-yl)piperidine-2,6-dione] | – | < 10 nM | – | < 1 nM | < 1 nM | – | > 75% | > 75%
12 | O=C1CC[C@H](N2Cc3c(ccc4c3OCC43CCN(CC4CCC5(CC4)CN(c4ccc([C@@H]6c7ccc(O)cc7CC[C@@H]6c6ccccc6)cn4)C5)CC3)C2=O)C(=O)N1 [Compound A131, (S)-3-(1′-((2-(5-((1S,2S)-6-hydroxy-2-phenyl-1,2,3,4-tetrahydronaphthalen-1-yl)pyridin-2-yl)-2-azaspiro[3.5]nonan-7-yl)methyl)-6-oxo-6,8-dihydro-2H,7H-spiro[furo[2,3-e]isoindole-3,4′-piperidin]-7-yl)piperidine-2,6-dione] | < 50 nM | < 10 nM | – | < 1 nM | – | – | > 75% | –
13 | O=C1CC[C@H](N2Cc3c(ccc4c3OCC43CCN(CC4CCC5(CC4)CN(c4ccc([C@@H]6c7ccc(O)cc7CC[C@@H]6c6ccccc6)cc4F)C5)CC3)C2=O)C(=O)N1 [Compound A161, (S)-3-(1′-((2-(2-fluoro-4-((1R, 2S)-6-hydroxy-2-phenyl-1,2,3,4-tetrahydronaphthalen-1-yl)phenyl)-2-azaspiro[3.5]nonan-7-yl)methyl)-6-oxo-6,8-dihydro-2H,7H-spiro[furo[2,3-e]isoindole-3,4′-piperidin]-7-yl)piperidine-2,6-dione] | < 50 nM | < 10 nM | – | < 1 nM | – | – | 50 to 75% | –
